Results taken from patent publication US20250353864A1, “INDAZOLE CONTAINING MACROCYCLES AND THEIR USE” (BLOSSOMHILL THERAPEUTICS, INC., priority 2022, published 2025).

Legend:
Format in all cases: biochemical
[1] = molecular target: CLK2 (Homo sapiens (Human), UniProt P49760); assay: Inhibition of CLK2 kinase activity evaluated at Nanosyn (ADP-Glo); conditions: ADP-Glo luminescence
In short: (§1)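 Enzyme + substrate in HEPES pH 7.5/MgCl2/DTT buffer; compound dispensed acoustically, 1% DMSO. ATP start, assay-specific incubation time. ADP-Glo reagent 40 min, detection reagent 10 min, luminescence. %inh vs DMSO (0%) and no-enzyme (100%) controls.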

[2] = molecular target: EGFR Δ746-750 mutant (Homo sapiens (Human), UniProt P00533, DEL746-750); assay: HotSpot radiometric kinase assay, EGFR Δ746-750 mutant; conditions: 10 μM ATP
Chain of EGFR Δ746-750 mutant (P00533 other isoform, or with tags, fused parts or gaps del 1-668/del 746-750 limits assumed): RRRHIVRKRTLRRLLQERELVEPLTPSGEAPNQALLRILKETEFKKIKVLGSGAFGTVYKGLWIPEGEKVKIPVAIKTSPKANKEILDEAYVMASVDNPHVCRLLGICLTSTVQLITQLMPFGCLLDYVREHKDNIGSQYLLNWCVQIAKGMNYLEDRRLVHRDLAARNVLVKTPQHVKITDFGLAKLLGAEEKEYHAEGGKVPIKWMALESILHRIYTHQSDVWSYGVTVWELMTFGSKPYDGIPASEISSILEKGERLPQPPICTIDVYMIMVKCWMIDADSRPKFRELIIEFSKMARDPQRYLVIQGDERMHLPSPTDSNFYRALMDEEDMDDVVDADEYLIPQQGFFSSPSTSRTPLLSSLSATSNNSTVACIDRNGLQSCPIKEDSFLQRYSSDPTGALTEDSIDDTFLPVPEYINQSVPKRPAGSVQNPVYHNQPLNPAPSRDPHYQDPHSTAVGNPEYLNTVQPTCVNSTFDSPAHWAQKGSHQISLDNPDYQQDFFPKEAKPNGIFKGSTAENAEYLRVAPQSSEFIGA
In short: (§2)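 10 μM ATP (33P-labelled, final); 120 min RT; P81 filter capture, 0.75% phosphoric acid washes. Cpd preincubated ~20 min with enzyme/substrate, 20 mM Hepes pH 7.5, 10 mM MgCl2, 1% DMSO. IC50 by curve fit.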

[3] = molecular target: EGFR L858R mutant (Homo sapiens (Human), UniProt P00533, L858R); assay: HotSpot radiometric kinase assay, EGFR L858R mutant; conditions: 10 μM ATP
In short: as §2

[4] = molecular target: EGFR L858R/T790M mutant (Homo sapiens (Human), UniProt P00533, L858R/T790M); assay: HotSpot radiometric kinase assay, EGFR L858R/T790M mutant; conditions: 10 μM ATP
In short: as §2

[5] = molecular target: CLK1 (Homo sapiens (Human), UniProt P49759); assay: Inhibition of CLK1 kinase activity evaluated at Nanosyn (ADP-Glo); conditions: ADP-Glo luminescence
In short: as §1

[6] = molecular target: EGFR Δ746-750/C797S mutant (Homo sapiens (Human), UniProt P00533, C797S/DEL746-750); assay: HotSpot radiometric kinase assay, EGFR Δ746-750/C797S mutant; conditions: 10 μM ATP
In short: as §2

[7] = molecular target: CLK3 (Homo sapiens (Human), UniProt P49761); assay: Inhibition of CLK3 kinase activity evaluated at Nanosyn (ADP-Glo); conditions: ADP-Glo luminescence
Chain of CLK3 (P49761 whole entry): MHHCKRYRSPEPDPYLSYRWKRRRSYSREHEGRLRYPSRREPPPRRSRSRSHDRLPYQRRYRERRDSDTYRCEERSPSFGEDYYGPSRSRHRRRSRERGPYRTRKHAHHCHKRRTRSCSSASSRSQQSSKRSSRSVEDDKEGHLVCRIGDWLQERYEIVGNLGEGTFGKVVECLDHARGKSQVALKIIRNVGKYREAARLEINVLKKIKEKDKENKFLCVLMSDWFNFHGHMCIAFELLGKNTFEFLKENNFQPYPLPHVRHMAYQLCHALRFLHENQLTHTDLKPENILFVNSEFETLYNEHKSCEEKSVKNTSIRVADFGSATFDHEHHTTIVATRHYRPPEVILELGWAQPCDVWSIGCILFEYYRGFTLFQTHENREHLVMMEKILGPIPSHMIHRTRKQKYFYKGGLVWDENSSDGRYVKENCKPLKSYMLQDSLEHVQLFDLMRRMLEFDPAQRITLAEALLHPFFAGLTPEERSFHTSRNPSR
In short: as §1

[8] = molecular target: EGFR (D770_N771insNPG) (Homo sapiens (Human), UniProt P00533, INS770NPG); assay: HotSpot radiometric kinase assay, EGFR (D770_N771insNPG); conditions: 10 μM ATP, read-out: EGFR (Δ770_N771insNPG) IC50
Chain of EGFR (D770_N771insNPG) (P00533 other isoform, or with tags, fused parts or gaps del 1-668/ins NPG behind 770 limits assumed): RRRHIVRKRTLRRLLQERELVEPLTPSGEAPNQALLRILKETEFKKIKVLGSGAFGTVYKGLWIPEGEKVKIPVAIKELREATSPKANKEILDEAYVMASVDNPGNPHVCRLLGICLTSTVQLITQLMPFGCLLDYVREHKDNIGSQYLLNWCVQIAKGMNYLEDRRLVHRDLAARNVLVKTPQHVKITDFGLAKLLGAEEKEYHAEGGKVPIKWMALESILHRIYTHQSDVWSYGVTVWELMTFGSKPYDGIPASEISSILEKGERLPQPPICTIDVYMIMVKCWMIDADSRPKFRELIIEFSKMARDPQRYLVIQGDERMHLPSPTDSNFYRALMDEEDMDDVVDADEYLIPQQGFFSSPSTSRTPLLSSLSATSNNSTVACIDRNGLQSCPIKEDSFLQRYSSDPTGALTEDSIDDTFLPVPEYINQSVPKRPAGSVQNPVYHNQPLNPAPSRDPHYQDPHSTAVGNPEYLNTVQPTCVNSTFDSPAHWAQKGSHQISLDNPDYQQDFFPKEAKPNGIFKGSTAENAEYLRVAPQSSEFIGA
In short: as §2

[9] = molecular target: EGFR WT (Homo sapiens (Human), UniProt P00533); assay: HotSpot radiometric kinase assay (Reaction Biology), EGFR WT; conditions: 10 μM ATP
Chain of EGFR WT (P00533 25-1210): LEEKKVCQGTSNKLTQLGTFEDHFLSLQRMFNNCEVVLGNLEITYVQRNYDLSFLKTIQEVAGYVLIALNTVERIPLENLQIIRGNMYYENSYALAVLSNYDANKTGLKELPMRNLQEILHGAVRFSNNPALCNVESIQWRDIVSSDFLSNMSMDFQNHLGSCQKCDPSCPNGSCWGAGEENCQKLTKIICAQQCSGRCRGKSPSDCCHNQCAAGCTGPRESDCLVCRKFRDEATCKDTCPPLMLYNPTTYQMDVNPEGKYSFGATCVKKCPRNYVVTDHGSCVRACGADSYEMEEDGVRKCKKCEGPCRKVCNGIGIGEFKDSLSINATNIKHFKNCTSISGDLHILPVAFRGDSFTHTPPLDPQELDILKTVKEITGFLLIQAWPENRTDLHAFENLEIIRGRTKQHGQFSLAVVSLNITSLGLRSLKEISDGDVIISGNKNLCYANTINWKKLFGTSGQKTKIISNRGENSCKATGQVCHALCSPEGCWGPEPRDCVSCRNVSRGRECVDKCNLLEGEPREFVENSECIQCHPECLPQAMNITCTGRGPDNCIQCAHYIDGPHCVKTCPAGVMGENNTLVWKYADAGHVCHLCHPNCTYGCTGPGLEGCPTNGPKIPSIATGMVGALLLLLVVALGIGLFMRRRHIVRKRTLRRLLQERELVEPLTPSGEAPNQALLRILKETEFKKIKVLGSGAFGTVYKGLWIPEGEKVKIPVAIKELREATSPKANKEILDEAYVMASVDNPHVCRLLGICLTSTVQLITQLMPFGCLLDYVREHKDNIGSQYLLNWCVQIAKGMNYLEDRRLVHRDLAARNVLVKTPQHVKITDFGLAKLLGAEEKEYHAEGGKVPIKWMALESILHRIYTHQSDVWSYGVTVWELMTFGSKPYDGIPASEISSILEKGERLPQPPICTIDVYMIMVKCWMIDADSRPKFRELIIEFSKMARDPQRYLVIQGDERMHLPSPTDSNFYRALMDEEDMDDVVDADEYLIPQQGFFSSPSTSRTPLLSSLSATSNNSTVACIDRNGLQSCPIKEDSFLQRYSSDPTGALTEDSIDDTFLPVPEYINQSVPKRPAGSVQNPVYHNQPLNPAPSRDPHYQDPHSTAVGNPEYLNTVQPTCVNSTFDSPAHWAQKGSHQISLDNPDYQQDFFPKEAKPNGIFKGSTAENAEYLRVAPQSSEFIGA
In short: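 IC50 values derive from curve fits of 33P incorporation measured by P81 filter binding. ATP was 10 μM final; incubation lasted 120 min at room temperature after ~20 min compound preincubation.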

[10] = molecular target: CLK4 (Homo sapiens (Human), UniProt Q9HAZ1); assay: Inhibition of CLK4 kinase activity evaluated at Nanosyn (ADP-Glo); conditions: ADP-Glo luminescence
Chain of CLK4 (Q9HAZ1 whole entry): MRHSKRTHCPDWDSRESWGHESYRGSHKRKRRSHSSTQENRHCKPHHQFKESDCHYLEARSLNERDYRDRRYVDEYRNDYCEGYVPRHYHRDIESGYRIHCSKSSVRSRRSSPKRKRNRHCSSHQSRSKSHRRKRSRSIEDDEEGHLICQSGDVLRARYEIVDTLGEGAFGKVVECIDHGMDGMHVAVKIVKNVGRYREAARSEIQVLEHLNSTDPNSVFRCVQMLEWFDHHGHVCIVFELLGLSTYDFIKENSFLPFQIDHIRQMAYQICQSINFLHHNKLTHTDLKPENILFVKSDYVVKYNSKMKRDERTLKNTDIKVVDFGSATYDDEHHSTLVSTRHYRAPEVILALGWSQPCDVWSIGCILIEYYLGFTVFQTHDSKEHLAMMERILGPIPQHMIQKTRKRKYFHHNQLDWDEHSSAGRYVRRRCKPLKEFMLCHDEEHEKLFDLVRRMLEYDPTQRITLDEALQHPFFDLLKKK
In short: as §1

[11] = molecular target: EGFR L858R/T790M/C797S mutant (Homo sapiens (Human), UniProt P00533, C797S/L858R/T790M); assay: HotSpot radiometric kinase assay, EGFR L858R/T790M/C797S mutant; conditions: 10 μM ATP
Chain of EGFR L858R/T790M/C797S mutant (P00533 25-1210 T790M/C797S/L858R): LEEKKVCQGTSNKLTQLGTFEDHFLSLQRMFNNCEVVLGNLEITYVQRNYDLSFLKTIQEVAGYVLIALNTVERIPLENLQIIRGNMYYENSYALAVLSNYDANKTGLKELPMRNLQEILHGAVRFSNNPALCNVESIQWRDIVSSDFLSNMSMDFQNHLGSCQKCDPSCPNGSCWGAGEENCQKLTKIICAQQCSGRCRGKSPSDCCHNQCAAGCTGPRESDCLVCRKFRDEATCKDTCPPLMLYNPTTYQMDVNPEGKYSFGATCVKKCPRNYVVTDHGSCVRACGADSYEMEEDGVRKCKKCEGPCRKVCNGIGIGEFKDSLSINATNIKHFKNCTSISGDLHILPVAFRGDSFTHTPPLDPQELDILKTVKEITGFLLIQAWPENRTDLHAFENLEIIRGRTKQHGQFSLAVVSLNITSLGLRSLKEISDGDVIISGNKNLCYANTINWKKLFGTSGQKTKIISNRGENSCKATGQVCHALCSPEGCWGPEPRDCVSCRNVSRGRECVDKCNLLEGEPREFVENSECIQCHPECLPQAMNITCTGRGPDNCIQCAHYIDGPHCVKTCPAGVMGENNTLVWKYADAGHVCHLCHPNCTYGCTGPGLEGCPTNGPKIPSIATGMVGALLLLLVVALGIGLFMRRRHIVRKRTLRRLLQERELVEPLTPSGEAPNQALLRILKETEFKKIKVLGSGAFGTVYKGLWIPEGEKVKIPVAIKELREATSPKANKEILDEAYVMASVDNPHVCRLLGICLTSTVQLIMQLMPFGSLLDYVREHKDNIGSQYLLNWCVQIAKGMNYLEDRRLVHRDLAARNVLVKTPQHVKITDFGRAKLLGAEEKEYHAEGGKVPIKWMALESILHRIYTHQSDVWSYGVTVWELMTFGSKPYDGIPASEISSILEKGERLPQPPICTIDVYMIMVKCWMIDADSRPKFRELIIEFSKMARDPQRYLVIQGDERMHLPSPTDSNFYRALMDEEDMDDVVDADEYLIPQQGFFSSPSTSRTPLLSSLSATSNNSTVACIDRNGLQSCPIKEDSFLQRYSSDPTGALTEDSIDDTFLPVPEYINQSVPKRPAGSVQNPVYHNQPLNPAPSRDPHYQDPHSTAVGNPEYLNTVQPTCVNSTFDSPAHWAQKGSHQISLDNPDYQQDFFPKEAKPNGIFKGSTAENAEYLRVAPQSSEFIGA
In short: as §2

Chain of CLK2 (P49760 whole entry): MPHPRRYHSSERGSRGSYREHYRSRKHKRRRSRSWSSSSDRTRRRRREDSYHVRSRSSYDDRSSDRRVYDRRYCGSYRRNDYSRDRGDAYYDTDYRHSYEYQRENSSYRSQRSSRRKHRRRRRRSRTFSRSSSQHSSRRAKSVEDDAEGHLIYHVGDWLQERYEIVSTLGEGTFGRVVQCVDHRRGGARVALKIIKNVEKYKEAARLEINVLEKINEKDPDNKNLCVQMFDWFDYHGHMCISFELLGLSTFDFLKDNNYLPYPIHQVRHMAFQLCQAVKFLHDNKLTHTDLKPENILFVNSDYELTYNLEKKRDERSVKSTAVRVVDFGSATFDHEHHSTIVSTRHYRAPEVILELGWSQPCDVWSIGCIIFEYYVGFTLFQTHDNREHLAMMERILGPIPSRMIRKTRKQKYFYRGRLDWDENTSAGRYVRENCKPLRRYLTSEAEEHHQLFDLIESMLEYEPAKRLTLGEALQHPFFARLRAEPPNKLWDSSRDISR

CCOc1nn(CCO)c2c1/C=C/c1n[nH]c3ccc(cc13)-c1cnn(C)c1O[C@@H](C)CN(C(C)C)C2 [Example 151, 2-[(10S,17E)-16-ethoxy-8,10-dimethyl-12-(propan-2-yl)-2,8,10,11,12,13-hexahydro-14H-3,5-ethenotripyrazolo[3,4-f:3′,4′-j:4″,3″-n][1,4]oxazacyclopentadecin-14-yl]ethan-1-o]
IC50 [1]: 0.04 nM | IC50 [2]: 0.3 nM | IC50 [3]: 0.22 nM | IC50 [4]: 0.48 nM | IC50 [5]: 0.24 nM | IC50 [6]: 0.72 nM | IC50 [7]: 23 nM | IC50 [8]: 2.55 nM | IC50 [9]: 0.87 nM | IC50 [10]: 0.52 nM | IC50 [11]: 0.46 nM

CCN1Cc2c(c(OC(C)C)nn2CC(C)(C)O)/C=C/c2n[nH]c3ccc(cc23)-c2cnn(C)c2O[C@@H](C)C1 [Example 262, 1-{(10S,17E)-12-ethyl-8,10-dimethyl-16-[(propan-2-yl)oxy]-2,8,10,11,12,13-hexahydro-14H-3,5-ethenotripyrazolo[3,4-f:3′,4′-j:4″,3″-n][1,4]oxazacyclopentadecin-14-yl}-2-methylpropan-2-ol]
IC50 [1]: 0.49 nM | IC50 [2]: 8.48 nM | IC50 [3]: 40.1 nM | IC50 [4]: 4.98 nM | IC50 [5]: 0.82 nM | IC50 [6]: 7.12 nM | IC50 [7]: 104 nM | IC50 [8]: 98.3 nM | IC50 [9]: 94.5 nM | IC50 [10]: 1.5 nM | IC50 [11]: 1.67 nM

CCc1noc2c1/C=C/c1n[nH]c3ccc(cc13)-c1cnn(C)c1O[C@@H](C)CN(C)C2 [Example 174, (10S,17E)-16-ethyl-8,10,12-trimethyl-2,8,10,11,12,13-hexahydro-3,5-etheno[1,2]oxazolo[5,4-f]dipyrazolo[3,4-j:4′,3′-n][1,4]oxazacyclopentadecine]
IC50 [1]: 0.21 nM | IC50 [2]: 133 nM | IC50 [3]: 127 nM | IC50 [4]: 10.9 nM | IC50 [5]: 0.16 nM | IC50 [6]: 27.2 nM | IC50 [7]: 128 nM | IC50 [8]: 996 nM | IC50 [9]: 752 nM | IC50 [10]: 0.51 nM | IC50 [11]: 4.88 nM

Cc1nn(CCO)c2c1/C=C/c1n[nH]c3cc(F)c(cc13)-c1cnn(C)c1O[C@@H](C)CN(C)C2 [Example 116, 2-[(10S,17E)-19-fluoro-8,10,12,16-tetramethyl-2,8,10,11,12,13-hexahydro-14H-3,5-ethenotripyrazolo[3,4-f:3′,4′-j:4″,3″-n][1,4]oxazacyclopentadecin-14-yl]ethan-1-ol]
IC50 [1]: 0.04 nM | IC50 [2]: 1.06 nM | IC50 [3]: 0.58 nM | IC50 [4]: 0.38 nM | IC50 [5]: 0.11 nM | IC50 [6]: 2.85 nM | IC50 [7]: 10.9 nM | IC50 [8]: 18.5 nM | IC50 [9]: 3.98 nM | IC50 [10]: 0.4 nM | IC50 [11]: 2.71 nM

Cc1nn(C)c2c1/C=C/c1n[nH]c3ccc(cc13)-c1cnn(C)c1O[C@H]1CCCN(C2)C1 [Example 176, (10S,19E)-8,16,18-trimethyl-2,8,10,11,12,13,15,16-octahydro-3,5-etheno-10,14-methanotripyrazolo[3,4-h:3′,4′-l:4″,3″- p][1,6]oxazacycloheptadecine]
IC50 [1]: 11.8 nM | IC50 [2]: 24.9 nM | IC50 [3]: 55.5 nM | IC50 [4]: 6.94 nM | IC50 [5]: 1.54 nM | IC50 [6]: 35.2 nM | IC50 [7]: 1000 nM | IC50 [8]: 83.4 nM | IC50 [9]: 152 nM | IC50 [10]: 1.44 nM | IC50 [11]: 13.1 nM

CC(C)c1noc2c1/C=C/c1n[nH]c3ccc(cc13)-c1cnn(C)c1O[C@@H](C)CN(C)C2 [Example 179, (10S,17E)-8,10,12-trimethyl-16-(propan-2-yl)-2,8,10,11,12,13-hexahydro-3,5-etheno[1,2]oxazolo[5,4-f]dipyrazolo[3,4-j:4′,3′-n][1,4]oxazacyclopentadecine]
IC50 [1]: 9.57 nM | IC50 [2]: > 1000 nM | IC50 [3]: > 1000 nM | IC50 [4]: 1010 nM | IC50 [5]: 2.75 nM | IC50 [6]: > 1000 nM | IC50 [7]: 1000 nM | IC50 [8]: > 1000 nM | IC50 [9]: > 1000 nM | IC50 [10]: 1.66 nM | IC50 [11]: 507 nM

CC(C)Oc1nn(CCO)c2c1/C=C/c1n[nH]c3ccc(cc13)-c1cnn(C)c1OCC(CF)N(C)C2 (stereo not shown) [Example 226, 2-{(17E)-11-(fluoromethyl)-8,12-dimethyl-16-[(propan-2-yl)oxy]-2,8,10,11.12,13-hexahydro-14H-3,5-ethenotripyrazolo[3,4-f:3′,4′-j:4″,3″-n][1,4]oxazacyclopentadecin-14-yl}ethan-1-ol]
IC50 [1]: 0.99 nM | IC50 [2]: 8.98 nM | IC50 [3]: 50.7 nM | IC50 [4]: 1.19 nM | IC50 [5]: 0.87 nM | IC50 [6]: 6.43 nM | IC50 [7]: 369 nM | IC50 [8]: 222 nM | IC50 [9]: 121 nM | IC50 [10]: 1.44 nM | IC50 [11]: 0.6 nM

Cc1nn(C)c2c1/C=C/c1n[nH]c3ccc(cc13)-c1cnn(C)c1O[C@@H]1CCCN(C2)C1 [Example 122, (10R,19E)-8,16,18-trimethyl-2,8,10,11,12,13,15,16-octahydro-3,5-etheno-10,14-methanotripyrazolo[3,4-h:3′,4′-l:4″,3″-p][1,6]oxazacycloheptadecine]
IC50 [1]: 0.15 nM | IC50 [2]: 7.45 nM | IC50 [3]: 11.9 nM | IC50 [4]: 1.46 nM | IC50 [5]: 0.27 nM | IC50 [6]: 6.79 nM | IC50 [7]: 21.2 nM | IC50 [8]: 58 nM | IC50 [9]: 94.2 nM | IC50 [10]: 0.6 nM | IC50 [11]: 2.09 nM

CCN1Cc2c(c(C)nn2C)/C=C/c2n[nH]c3ccc(cc23)-c2cnn(C)c2O[C@@H](C)C1 [Example 165, (10S,17E)-12-ethyl-8,10,14,16-tetramethyl-2,10,11,12,13,14-hexahydro-8H-3,5-ethenotripyrazolo[3,4-f:3′,4′-j:4″,3″-n][1,4]oxazacyclopentadecine]
IC50 [1]: 0.02 nM | IC50 [2]: 4.84 nM | IC50 [3]: 6.08 nM | IC50 [4]: 0.47 nM | IC50 [5]: 0.1 nM | IC50 [6]: 2.33 nM | IC50 [7]: 72.4 nM | IC50 [8]: 19 nM | IC50 [9]: 28.5 nM | IC50 [10]: 0.19 nM | IC50 [11]: 0.44 nM

CCOc1nn([C@H](C)CO)c2c1/C=C/c1n[nH]c3ccc(cc13)-c1cnn(C)c1O[C@@H](C)CN(C)C2 [Example 171, (2R)-2-[(10S,17E)-16-ethoxy-8,10,12-trimethyl-2,8,10,11,12,13-hexahydro-14H-3,5-ethenotripyrazolo[3,4-f:3′,4′-j:4″,3″-n][1,4]oxazacyclopentadecin-14-yl]propan-1-ol]
IC50 [1]: 0.62 nM | IC50 [2]: 38.3 nM | IC50 [3]: 7.5 nM | IC50 [4]: 0.5 nM | IC50 [5]: 0.85 nM | IC50 [6]: 8.74 nM | IC50 [7]: 977 nM | IC50 [8]: 86 nM | IC50 [9]: 67.2 nM | IC50 [10]: 0.57 nM | IC50 [11]: 1.32 nM

CC(C)Oc1nn(CCO)c2c1/C=C/c1n[nH]c3ccc(cc13)-c1cnn(C3CC3)c1O[C@@H](C)CN(C)C2 [Example 246, 2-{(10S,17E)-8-cyclopropyl-10,12-dimethyl-16-[(propan-2-yl)oxy]-2,8,10,11,12,13-hexahydro-14H-3,5-ethenotripyrazolo[3,4-f:3′,4′-j:4″,3″-n][1,4]oxazacyclopentadecin-14-yl}ethan-1-ol]
IC50 [1]: 1.36 nM | IC50 [2]: 8.71 nM | IC50 [3]: 5.14 nM | IC50 [4]: 1.71 nM | IC50 [5]: 0.75 nM | IC50 [6]: 3.18 nM | IC50 [7]: 386 nM | IC50 [8]: 39.5 nM | IC50 [9]: 23.3 nM | IC50 [10]: 1.33 nM | IC50 [11]: 4.42 nM
